Measurements taken from patent US20110300116A1, “Method for Generating a Recombinant Clonal Cell Line and Novel Reagents for Use in the Method” (CELLAURA TECHNOLOGIES LTD, priority 2007, published 2011).

Molecular target: T1, human dopamine D1 receptor (Homo sapiens, UniProt P21728)
T1 construct: expressed in transfected cells; host or cells: CHO cells
Experiment: Confocal imaging of fluorescent ligand binding to a mixed population cell line expressing the human dopamine D1 receptor
Assay type: cell-based
Conditions: ligand 10 nM; human D1-receptor expressing CHO mixed population before antibiotic resistance selection and prior to FACS sorting; confocal microscopy, FIG. 3
Method: In FIG. 3 is shown a confocal microscope image of N-{4-aza-3,7-dioxo-7-[4-(8-methoxy-3-methyl-2,3,4,5-tetrahydro-1H-3-benzazepine-1-yl)phenylamino]heptyl}-6-{2-[4-(2-(4,4-difluoro-4,4a-dihydro-5-(thiophen-2-yl)-4-bora-3a,4a-diaza-s-indacene-3-yl)vinyl) ligand (10 nM) binding to human dopamine D1-receptor expressing CHO “cell line” before antibiotic resistance selection and prior to FACS™ sorting. Red images (light grey) show cells binding the fluorescent D1-receptor antagonist and the blue images (dark grey) show the Hoechst staining of the cellular nuclei. It is clear that only about 20% of the cells are expressing the human dopamine D1 receptor.
A mixed population cell line expressing the human dopamine D1 receptor was screened with novel fluorescent dopamine D1 receptor antagonist N-{4-aza-3,7-dioxo-7-[4-(8-methoxy-3-methyl-2,3,4,5-tetrahydro-1H-3-benzazepine-1-yl)phenylamino]heptyl}-6-{2-[4-(2-(4,4-difluoro-4,4a-dihydro-5-(thiophen-2-yl)-4-bora-3a,4a-diaza-s-indacene-3-yl)vinyl), prepared as in Example 1. […] Using FACS cell sorting, these cells are sorted and separated into populations of cells expressing low, medium or high levels of the dopamine D1 receptor. […] A cell sorter such as the Beckman-Coulter Altra can then be used to put individual cells into single wells of a 96 well plate.

T1 sequence (P21728 whole entry): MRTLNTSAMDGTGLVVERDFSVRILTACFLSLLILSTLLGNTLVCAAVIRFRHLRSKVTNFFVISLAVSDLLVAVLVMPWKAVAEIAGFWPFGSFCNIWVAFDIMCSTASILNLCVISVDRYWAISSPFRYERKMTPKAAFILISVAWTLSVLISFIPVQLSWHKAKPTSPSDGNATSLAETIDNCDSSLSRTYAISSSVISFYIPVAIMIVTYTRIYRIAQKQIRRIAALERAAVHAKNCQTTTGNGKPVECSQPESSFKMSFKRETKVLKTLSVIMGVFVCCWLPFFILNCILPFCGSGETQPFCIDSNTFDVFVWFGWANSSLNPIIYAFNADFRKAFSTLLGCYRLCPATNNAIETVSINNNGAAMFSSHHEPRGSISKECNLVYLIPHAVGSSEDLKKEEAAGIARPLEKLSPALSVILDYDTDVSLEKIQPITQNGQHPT

CN1CCc2ccc(O)cc2C(c2ccc(NC(=O)CCNC(=O)CCNC(=O)CCCCCNC(=O)COc3ccc(/C=C/C4=[N+]5C(=Cc6ccc(-c7cccs7)n6[B-]5(F)F)C=C4)cc3)cc2)C1 (stereo not shown)
cells that label with the fluorescent D1-receptor antagonist: about 20%
